Measurements from paper PMC12006790 (Synthetic Biology, 2025).

How the values were obtained:
[1] = target: T1, HjCel7A (Trichoderma reesei, UniProt P62694); test: p-nitrophenol release, […] nm; assay type: biochemical; details: 2 mM substrate, PBS pH 7.4, 40 °C, 12 h
T1 sequence (P62694 18-513): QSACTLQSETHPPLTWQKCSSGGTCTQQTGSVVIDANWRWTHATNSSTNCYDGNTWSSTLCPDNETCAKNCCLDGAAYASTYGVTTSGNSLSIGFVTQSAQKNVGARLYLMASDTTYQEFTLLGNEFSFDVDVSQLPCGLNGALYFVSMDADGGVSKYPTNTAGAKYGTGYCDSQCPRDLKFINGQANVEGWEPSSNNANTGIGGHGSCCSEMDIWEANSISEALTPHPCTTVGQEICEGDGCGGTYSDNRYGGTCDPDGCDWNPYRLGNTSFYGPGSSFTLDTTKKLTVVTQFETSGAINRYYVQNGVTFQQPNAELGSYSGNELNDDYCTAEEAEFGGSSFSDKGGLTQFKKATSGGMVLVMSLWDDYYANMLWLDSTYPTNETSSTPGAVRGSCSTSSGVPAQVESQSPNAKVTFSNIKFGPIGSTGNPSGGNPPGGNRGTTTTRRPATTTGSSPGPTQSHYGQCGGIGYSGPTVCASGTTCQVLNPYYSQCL

[2] = target: T2, CelEdx16 (Clostridiaceae bacterium AN-C16-KBRB, UniProt E0A3Q5); test: p-nitrophenol release, […] nm; assay type: biochemical; details: 2 mM substrate, PBS pH 7.4, 40 °C, 12 h
T2 sequence (E0A3Q5 1-367): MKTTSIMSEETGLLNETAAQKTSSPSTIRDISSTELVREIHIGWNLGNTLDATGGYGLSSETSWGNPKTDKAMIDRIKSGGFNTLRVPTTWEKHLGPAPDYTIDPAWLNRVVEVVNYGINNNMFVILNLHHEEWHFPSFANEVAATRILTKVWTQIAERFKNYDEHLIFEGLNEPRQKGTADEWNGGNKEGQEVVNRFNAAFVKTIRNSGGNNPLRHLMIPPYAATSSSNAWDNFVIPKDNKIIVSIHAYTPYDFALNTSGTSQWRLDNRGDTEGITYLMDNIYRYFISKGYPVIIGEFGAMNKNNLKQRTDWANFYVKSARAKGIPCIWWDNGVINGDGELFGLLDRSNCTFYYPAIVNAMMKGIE

O=[N+]([O-])c1ccc(O[C@@H]2O[C@H](CO)[C@@H](O[C@@H]3O[C@H](CO)[C@@H](O)[C@H](O)[C@H]3O)[C@H](O)[C@H]2O)cc1 [p-nitrophenyl β-D-cellobioside]
p-nitrophenol release, 405 nm; cell-free CB-biosensor [1]: pNP assay detected significant signals for CelEdx16 and HjCel7A (CBHI)
p-nitrophenol release, 405 nm; cell-free CB-biosensor [2]: pNP assay detected significant signals for CelEdx16 and HjCel7A (CBHI)
